System: high-fat diet mouse model
Experiment: Therapeutic effect on hyperlipidemia and hypercholesterolemia in high-fat diet mouse model (blood cholesterol and triglycerides)
Format: in vivo
Conditions: high-fat diet female ICR mice, oral once a day for 12 weeks; complex extracts 100 mg/kg/day, Lovastatin 20 mg/kg/day
Description: 64 six-week-old female ICR mice were purchased from SLC Co. and acclimated for one week under breeding conditions of a temperature range of 22±1° C., a humidity range of 41±1%, and a 12-hour light/12-hour dark cycle. During this period, the mice were fed a normal diet. Then, the mice were randomly divided into 16 and 48 individuals. To adapt the mice to feed, the 16 individuals (a normal diet-fed group) were fed a normal diet (CA.170481, Teklad Co.) and the 48 individuals (a high-fat diet-fed group) were fed a high-fat diet (D12451, Research Diets Co.) containing 45 kcal % fat under the same breeding conditions as above for one week.
Specifically, eight mice were selected from the normal diet-fed group and assigned to a normal diet group. 24 mice were selected from the high-fat diet-fed group, eight of which were assigned to a high-fat diet group, a high-fat diet+complex extracts administration group, and a high-fat diet+Lovastatin administration group, respectively. Each experimental group was orally administered distilled water or the Artemisiae capillaris Herba and Citrus unshiu Peel complex extracts of Examples 1-3 containing the highest content of scoparone once a day for 12 weeks. In addition, a comparison group was orally administered Lovastatin (Hanmi Pharm. Co., Ltd), which is used to treat hyperlipidemia and hypercholesterolemia, once a day for 12 weeks. In this case, the complex extracts and Lovastatin were each suspended in distilled water and administered orally. In addition, the normal group was fed a normal diet and other experimental groups were fed a high-fat diet for 12 weeks.
In the experimental groups of Experimental Example <2-1>, changes in the contents of triglycerides and cholesterol were confirmed.
Specifically, each experimental group of Experimental Example <2-1> was orally administered samples for 12 weeks. On the last day of the experiment, all animals were bled under ether inhalation anesthesia, and 1 mL of the collected blood was centrifuged for 10 minutes at 3,000 rpm to isolate plasma. The contents of total cholesterol, triglycerides, and low density lipoprotein cholesterol (LDL) in the isolated plasma were measured using an Analyst III kit (Hemagen Diagnositics Co.) according to a manufacturer's procedure, and the content of high density lipoprotein cholesterol (HDL) was measured using an AU400 kit (Olympus Co.) according to a manufacturer's procedure.

## CC[C@H](C)C(=O)O[C@H]1C[C@@H](C)C=C2C=C[C@H](C)[C@H](CC[C@@H]3C[C@@H](O)CC(=O)O3)[C@H]21 [Lovastatin]
  Serum content HDL: 62.44 ± 1.96 mg/dL
  Serum content LDL: 14.91 ± 0.46 mg/dL
  Serum content Total cholesterol: 83.26 ± 7.40 mg/dL
  Serum content Triglycerides: 81.43 ± 5.24 mg/dL
